Read-outs that look alike come from different tables or passages of the source.
Tests used:
Pim-1 = Pim-1 (Homo sapiens (Human), UniProt P11309); experiment: Pim enzyme assay (HTRF, 96-well), Pim-1; assay type: biochemical; conditions: full length recombinant Pim-1, biotinylated-BAD (S112) peptide, 10-point curve, 2 h RT, read-out: Pim-1 IC50 IP
Procedure, shortened: (§1)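 HTRF detection of biotinylated BAD (S112) phosphorylation by full-length recombinant His-tagged Pim-1 or Pim-2 in 60 mM Hepes pH 7.0, 0.05% BSA, 2 mM DTT at 22 °C: 2 h for Pim-1, 45 min for Pim-2. Stopped with EDTA; IC50 from 4-parameter logistic fit of percent of control.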

Pim-2 = Pim-2 (Homo sapiens (Human), UniProt Q9P1W9); experiment: Pim enzyme assay (HTRF, 96-well), Pim-2; assay type: biochemical; conditions: full length recombinant Pim-2, biotinylated-BAD (S112) peptide, 10-point curve, 45 min RT, read-out: Pim-2 IC50 IP
Chain of Pim-2 (Q9P1W9 whole entry): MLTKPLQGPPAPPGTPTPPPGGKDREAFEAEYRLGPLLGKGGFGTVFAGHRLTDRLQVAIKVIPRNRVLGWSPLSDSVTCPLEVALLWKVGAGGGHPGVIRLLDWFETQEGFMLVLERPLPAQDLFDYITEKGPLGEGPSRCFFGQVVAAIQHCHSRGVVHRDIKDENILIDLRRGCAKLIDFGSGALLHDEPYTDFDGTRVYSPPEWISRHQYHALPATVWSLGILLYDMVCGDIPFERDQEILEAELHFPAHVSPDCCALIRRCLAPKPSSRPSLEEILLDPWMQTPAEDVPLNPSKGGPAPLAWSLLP
Procedure, shortened: as §1

[1] = system: KMS-12-BM myeloma cell line; experiment: Pim KMS-12 cell assay (phospho-BAD S112 / total BAD, MSD); conditions: Homo sapiens, KMS-12-BM
[2] = read-out: KMS-12-BM IC50 IP, KMS-12-BM cells, phospho-BAD (S112) vs total BAD, 1 hour 50 min with compound

Chain of Pim-1 (P11309 whole entry): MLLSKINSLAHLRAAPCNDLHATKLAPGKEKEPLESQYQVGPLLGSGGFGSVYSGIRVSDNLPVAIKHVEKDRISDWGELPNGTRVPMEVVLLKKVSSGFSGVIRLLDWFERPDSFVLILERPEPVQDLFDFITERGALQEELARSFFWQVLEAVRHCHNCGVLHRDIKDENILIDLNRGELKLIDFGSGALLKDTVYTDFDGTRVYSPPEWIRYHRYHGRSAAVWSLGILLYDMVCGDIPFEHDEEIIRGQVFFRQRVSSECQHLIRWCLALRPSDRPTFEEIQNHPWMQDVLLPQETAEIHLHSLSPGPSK

Cc1nc2cccc(-c3cc4c([nH]3)CCNC4=O)c2nc1NC(C)C [Example 192, 2-(3-(isopropylamino)-2-methylquinoxalin-5-yl)-6,7-dihydro-1H-pyrrolo[3,2-c]pyridin-4(5H)-one]
IC50 (Pim-1): 0.0075 µM
IC50 (Pim-2): 0.0049 µM
IC50 ([1]; read-out: KMS-12-BM IC50 IP): 0.27 µM

Cc1nc2cccc(-c3cc4c([nH]3)CCNC4=O)c2nc1Nc1ccccc1 [Example 183, 2-(2-methyl-3-(phenylamino)quinoxalin-5-yl)-6,7-dihydro-1H-pyrrolo[3,2-c]pyridin-4(5H)-one]
IC50 (Pim-1): 0.0015 µM
IC50 (Pim-2): 0.0016 µM
IC50 [1, 2]: 0.165 µM

O=C1NCCc2[nH]c(-c3c(F)ccc4ccc(Nc5cccnc5)nc34)cc21 [Example 228, 2-(7-fluoro-2-(pyridin-3-ylamino)quinolin-8-yl)-6,7-dihydro-1H-pyrrolo[3,2-c]pyridin-4(5H)-one]
IC50 (Pim-1): 0.003 µM
IC50 (Pim-2): 0.0009 µM
IC50 [1, 2]: 1.61 µM

C=C(C)CNc1nc2c(-c3cc4c([nH]3)CCNC4=O)cccc2nc1C [Example 135, 2-(2-methyl-3-((2-methylallyl)amino)quinoxalin-5-yl)-6,7-dihydro-1H-pyrrolo[3,2-c]pyridin-4(5H)-one]
IC50 (Pim-1): 0.0076 µM
IC50 (Pim-2): 0.0047 µM
IC50 [1, 2]: 0.217 µM

O=C1NCCc2[nH]c(-c3c(F)ccc4ccc(Nc5ccccc5)nc34)cc21 [Example 227, 2-(7-fluoro-2-(phenylamino)quinolin-8-yl)-6,7-dihydro-1H-pyrrolo[3,2-c]pyridin-4(5H)-one]
IC50 (Pim-1): 0.0009 µM
IC50 (Pim-2): 0.0039 µM
IC50 [1, 2]: 0.539 µM

O=C1NCCc2[nH]c(-c3cccc4ccc(O[C@H]5CCCNC5)nc34)cc21 [Example 92, (S)-2-(2-(piperidin-3-yloxy)quinolin-8-yl)-6,7-dihydro-1H-pyrrolo[3,2-c]pyridin-4(5H)-one]
IC50 (Pim-1): 0.0165 µM
IC50 (Pim-2): 0.062 µM
IC50 [1, 2]: 12.2 µM

N[C@H]1CCC[C@H](Nc2ccc3cccc(-c4cc5c([nH]4)CCNC5=O)c3n2)C1 (racemic) [Example 120, rac-2-(2-((trans-3-aminocyclohexyl)amino)quinolin-8-yl)-6,7-dihydro-1H-pyrrolo[3,2-c]pyridin-4(5H)-one]
IC50 (Pim-1): 0.0006 µM
IC50 (Pim-2): 0.0046 µM
IC50 [1, 2]: 2.21 µM

Cc1nc2cccc(-c3cc4c([nH]3)CCNC4=O)c2nc1NC1(C)COC1 [Example 197, 2-(2-methyl-3-((3-methyloxetan-3-yl)amino)quinoxalin-5-yl)-6,7-dihydro-1H-pyrrolo[3,2-c]pyridin-4(5H)-one]
IC50 (Pim-1): 0.0072 µM
IC50 (Pim-2): 0.0057 µM
IC50 [1, 2]: 0.511 µM

O=C1NCCc2[nH]c(-c3cccc4ccc(Oc5ccccc5Cl)nc34)cc21 [Example 103, 2-(2-(2-chlorophenoxy)quinolin-8-yl)-6,7-dihydro-1H-pyrrolo[3,2-c]pyridin-4(5H)-one]
IC50 (Pim-1): 0.0081 µM
IC50 (Pim-2): 0.0181 µM
IC50 ([1]; read-out: KMS-12-BM IC50 IP): 7.73 µM

Cc1cc2cccc(-c3cc4c([nH]3)CCNC4=O)c2nc1Nc1ccccc1 [Example 105, 2-(3-methyl-2-(phenylamino)quinolin-8-yl)-6,7-dihydro-1H-pyrrolo[3,2-c]pyridin-4(5H)-one]
IC50 (Pim-1): 0.0008 µM
IC50 (Pim-2): 0.0012 µM
IC50 [1, 2]: 0.407 µM

O=C1NCCc2[nH]c(-c3cccc4ccc(Oc5ccc(F)cc5F)nc34)cc21 [Example 10, 2-(2-(2,4-difluorophenoxy)quinolin-8-yl)-6,7-dihydro-1H-pyrrolo[3,2-c]pyridin-4(5H)-one]
IC50 (Pim-1): 0.0121 µM
IC50 (Pim-2): 0.0211 µM
IC50 [1, 2]: 7.49 µM

O=C1NCCc2[nH]c(-c3cccc4ccc(Nc5c(F)cccc5Cl)nc34)cc21 [Example 7, 2-(2-((2-chloro-6-fluorophenyl)amino)quinolin-8-yl)-6,7-dihydro-1H-pyrrolo[3,2-c]pyridin-4(5H)-one]
IC50 (Pim-1): 0.001 µM
IC50 (Pim-2): 0.0052 µM
IC50 [1, 2]: 2.74 µM

O=C1NCCc2[nH]c(-c3cccc4ccc(NCc5ccccc5)nc34)cc21 [Example 21, 2-(2-(benzylamino)quinolin-8-yl)-6,7-dihydro-1H-pyrrolo[3,2-c]pyridin-4(5H)-one]
IC50 (Pim-1): 0.0028 µM
IC50 (Pim-2): 0.0216 µM
IC50 [1, 2]: 4.92 µM

Cc1cccc(Nc2ccc3cccc(-c4cc5c([nH]4)CCNC5=O)c3n2)c1 [Example 44, 2-(2-((3-methylphenyl)amino)-8-quinolinyl)-1,5,6,7-tetrahydro-4H-pyrrolo[3,2-c]pyridin-4-one]
IC50 (Pim-1): 0.0072 µM
IC50 (Pim-2): 0.0292 µM
IC50 ([1]; read-out: KMS-12-BM IC50 IP): 13.1 µM

O=C1NCCc2[nH]c(-c3cccc4ccc(NC5CCOCC5)nc34)cc21 [Example 85, 2-(2-((Tetrahydro-2H-pyran-4-yl)amino)quinolin-8-yl)-6,7-dihydro-1H-pyrrolo[3,2-c]pyridin-4(5H)-one]
IC50 (Pim-1): 0.0044 µM
IC50 (Pim-2): 0.0226 µM
IC50 [1, 2]: 0.953 µM

O=C1NCCn2cc(-c3cccc4ccc(Nc5ccccc5)nc34)cc21 [Example 165, 7-(2-(phenylamino)quinolin-8-yl)-3,4-dihydropyrrolo[1,2-a]pyrazin-1(2H)-one]
IC50 (Pim-1): 0.0067 µM
IC50 (Pim-2): 0.0179 µM
IC50 [1, 2]: 3.85 µM

Cc1cccc(C)c1Nc1ccc2cccc(-c3cc4c([nH]3)CCNC4=O)c2n1 [Example 102, 2-(2-((2,6-dimethylphenyl)amino)quinolin-8-yl)-6,7-dihydro-1H-pyrrolo[3,2-c]pyridin-4(5H)-one]
IC50 (Pim-1): 0.0076 µM
IC50 (Pim-2): 0.0739 µM
IC50 ([1]; read-out: KMS-12-BM IC50 IP): 10.4 µM

O=C1NCCc2[nH]c(-c3cccc4ccc(Nc5cccnc5)nc34)cc21 [Example 38, 2-(2-(3-pyridinylamino)-8-quinolinyl)-1,5,6,7-tetrahydro-4H-pyrrolo[3,2-c]pyridin-4-one]
IC50 (Pim-1): 0.0003 µM
IC50 (Pim-2): 0.0007 µM
IC50 [1, 2]: 1.29 µM

O=c1[nH]ccc2[nH]c(-c3cccc4ccc(Nc5ccccc5Cl)nc34)cc12 [Example 107, 2-(2-((2-chlorophenyl)amino)quinolin-8-yl)-1H-pyrrolo[3,2-c]pyridin-4(5H)-one]
IC50 (Pim-1): 0.0052 µM
IC50 (Pim-2): 0.0322 µM
IC50 [1, 2]: 15.6 µM

O=C1NCCc2[nH]c(-c3cccc4ccc(Nc5ccc(F)cc5F)nc34)cc21 [Example 8, 2-(2-((2,4-difluorophenyl)amino)quinolin-8-yl)-6,7-dihydro-1H-pyrrolo[3,2-c]pyridin-4(5H)-one]
IC50 (Pim-1): 0.0028 µM
IC50 (Pim-2): 0.0127 µM
IC50 [1, 2]: 1.28 µM

O=C1NCCn2cc(-c3cccc4ccc(Nc5cccnc5)nc34)cc21 [Example 166, 7-(2-(pyridin-3-ylamino)quinolin-8-yl)-3,4-dihydropyrrolo[1,2-a]pyrazin-1(2H)-one]
IC50 (Pim-1): 0.0011 µM
IC50 (Pim-2): 0.0022 µM
IC50 [1, 2]: 4.31 µM

Cc1nc2cccc(-c3cc4c([nH]3)CCNC4=O)c2nc1Nc1ccccn1 [Example 190, 2-(2-methyl-3-(pyridin-2-ylamino)quinoxalin-5-yl)-6,7-dihydro-1H-pyrrolo[3,2-c]pyridin-4(5H)-one]
IC50 (Pim-1): 0.0362 µM
IC50 (Pim-2): 0.0176 µM
IC50 [1, 2]: 0.966 µM

O=C1NCCc2[nH]c(-c3cccc4ccc(OC5CCCC5)nc34)cc21 [Example 80, 2-(2-(cyclopentyloxy)quinolin-8-yl)-6,7-dihydro-1H-pyrrolo[3,2-c]pyridin-4(5H)-one]
IC50 (Pim-1): 0.0074 µM
IC50 (Pim-2): 0.0305 µM
IC50 [1, 2]: 14.4 µM

O=C1NCCc2[nH]c(-c3cccc4ccc(Oc5c(F)cccc5Cl)nc34)cc21 [Example 9, 2-(2-(2-chloro-6-fluorophenoxy)quinolin-8-yl)-6,7-dihydro-1H-pyrrolo[3,2-c]pyridin-4(5H)-one]
IC50 (Pim-1): 0.0046 µM
IC50 (Pim-2): 0.0086 µM
IC50 [1, 2]: 6.35 µM

From US9394297B2, “Amides as pim inhibitors” (AMGEN INC., priority 2012, dated 2016)
